Measured values taken from patent US20250171434A1, “SEC61 INHIBITORS AND USE THEREOF” (KEZAR LIFE SCIENCES, INC., priority 2022, published 2025).

Experiments:
[1] = test system: PD1-ss+10aa/Gaussia Luciferase; experiment: Dox-Induced PD1-ss-Gluc Assay; format: cell-based; conditions: Flp-In 293 T-REx cells, 24 hours with doxycycline; Table 1; read-out: 24 hr Dox Inducible PD1ssGluc 293FRT/TO: Mean IC50
Procedure, shortened: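 Compounds were added in DMSO/media with doxycycline and incubated at 37 °C, 5% CO2, on 293 T-REx cells plated one day earlier. These cells stably express, under tetracycline-regulated control, a Gaussia luciferase fused to the PD1 signal peptide plus 10 residues. Structures drawn without stereochemistry were tested as stereoisomer mixtures.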

[2] = test system: IL-2-FL/Gaussia Luciferase; experiment: Dox Inducible IL2-FL-Gluc Assay; format: cell-based; conditions: Table 1; for IC50: Flp-In 293 T-REx cells, 24 hours with doxycycline, read-out: 24 hr Dox Inducible IL2FLGluc 293FRT/TO: Mean IC50; for 24 hr Dox Inducible IL2FLGluc 293FRT/TO: IL2/PD1: ratio of IC50s IL2/PD1
Procedure, shortened: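 Flp-In 293 T-REx cells stably carrying doxycycline-inducible full-length IL-2 (aa 1-153) fused at its C-terminus to Gaussia luciferase, selected with hygromycin and blasticidin. Cells were plated the day before, then treated with compounds in DMSO/media containing doxycycline at 37° C, 5% CO2.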

CD47(ss + 10)Gluc = experiment: Dox-Induced CD47-ss-Gluc Assay; format: cell-based; conditions: Flp-In 293 T-REx cells, 24 hours with doxycycline; Table 1; read-out: 24 hr Dox Inducible CD47(ss + 10)Gluc 293FRT/TO: Mean IC50
[3] = test system: IL6R-ss+10aa/Gaussia Luciferase; experiment: Dox-induced IL-6R-ss-Gluc Assay; format: cell-based; conditions: Table 1; for IC50: Flp-In 293 T-REx cells, 24 hours with doxycycline, read-out: 24hr Dox Inducible IL6R(ss + 10)Gluc 293FRT/TO: Mean IC50; for 24hr Dox Inducible IL6R(ss + 10)Gluc 293FRT/TO: IL6R/PD1: ratio of IC50s IL6R/PD1
Procedure, shortened: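 Flp-In 293 T-REx cells stably carrying a doxycycline-inducible IL6R signal sequence+10 aa fused to Gaussia luciferase. Cells plated the day before; compound dilutions added in DMSO/media containing doxycycline and incubated at 37 °C, 5% CO2.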

[4] = test system: multiple myeloma cell line NCI-H929; experiment: H929 Cell Viability Assay; format: cell-based, human; conditions: Homo sapiens; NCI-H929 cells, 48 hours, Celltiter-Glo; read-out: 48 hr H929 Viability Celltiter-Glo: Mean EC50
Procedure, shortened: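 NCI-H929 cells, resuspended in RPMI 1640 with 10% FBS and 2 mM glutamine, were treated with compound dilutions in DMSO/media and incubated 48 hours at 37° C, 5% CO2. Viability was read by CellTiter-Glo luminescence. Compounds drawn without stereochemistry were tested as stereoisomer mixtures.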

[5] = test system: multiple myeloma cell line U266B1; experiment: U266 Cell Viability Assay; format: cell-based; conditions: Homo sapiens, U-266; U266B1 cells, 48 hours, Celltiter-Glo; read-out: 48 hr U266 Viability Celltiter-Glo: Mean EC50
Procedure, shortened: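 Cells grown in RPMI 1640 with 10% FBS, 2 mM glutamine and penicillin/streptomycin were exposed to compound dilutions in DMSO/media for 48 hours at 37° C., 5% CO2. Viability was read by CellTiter-Glo luminescence. Undefined stereocentres mean data for stereoisomer mixtures.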

[6] = Liver Microsome Stability Assay, mouse; format: in vitro ADME; conditions: mouse liver microsomes 1.0 mg/mL, 1.0 uM compound, 37° C., 1 mM NADPH
Procedure, shortened: (§1)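 Microsomes (1.0 mg/mL) in 0.1 M potassium phosphate are mixed with 1.0 uM test compound and 0.4% DMSO. Incubation runs at 37° C with or without 1 mM NADPH, and samples are quenched at 0 and 30 minutes.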

[7] = Liver Microsome Stability Assay, rat; format: in vitro ADME; conditions: rat liver microsomes 1.0 mg/mL, 1.0 uM compound, 37° C., 1 mM NADPH
Procedure, shortened: as §1

[8] = Liver Microsome Stability Assay, monkey; format: in vitro ADME; conditions: monkey liver microsomes 1.0 mg/mL, 1.0 uM compound, 37° C., 1 mM NADPH
Procedure, shortened: as §1

[9] = Liver Microsome Stability Assay, human; format: in vitro ADME; conditions: human liver microsomes 1.0 mg/mL, 1.0 uM compound, 37° C., 1 mM NADPH
Procedure, shortened: as §1

Compound	IC50 [1] [µM]	IC50 [2] [µM]	24 hr Dox Inducible IL2FLGluc 293FRT/TO: IL2/PD1 [2]	IC50 (CD47(ss + 10)Gluc) [µM]	IC50 [3] [µM]	24hr Dox Inducible IL6R(ss + 10)Gluc 293FRT/TO: IL6R/PD1 [3]	EC50 [4] [µM]	EC50 [5] [µM]	Liver Microsome Stability (Multiple Species): Mouse - % Remaining after 30 min w/ NADPH (%) [6] [%]	Liver Microsome Stability (Multiple Species): Rat - % Remaining after 30 min w/ NADPH (%) [7] [%]	Liver Microsome Stability (Multiple Species): Monkey - % Remaining after 30 min w/ NADPH (%) [8] [%]	Liver Microsome Stability (Multiple Species): Human - % Remaining after 30 min w/ NADPH (%) [9] [%]
Cc1nc(/C=C/c2csc(NC(=O)c3cccn3Cc3ccnc(F)c3)n2)ccc1C#N [Compound B14, (E)-N-(4-(2-(5-cyano-6-methylpyridin-2-yl)vinyl)thiazol-2-yl)-1-((2-fluoropyridin-4-yl)methyl)-1H-pyrrole-2-carboxamide]	1.1	> 25	>23	> 25	> 25	>23	> 25	> 25	0.2	<1	<1	<1
CC(=O)N[C@H]1CC[C@@H](/C=C/c2csc(NC(=O)c3cccn3Cc3ccncc3)n2)CC1 [Compound B15, N-(4-((E)-2-((1s,4s)-4-acetamidocyclohexyl)vinyl)thiazol-2-yl)-1-(pyridin-4-ylmethyl)-1H-pyrrole-2-carboxamide]	11.9	> 25	>2.1	> 25	> 25	>2	> 25	> 25	2	1	<1	<1
N[C@H]1CC[C@@H](/C=C/c2csc(NC(=O)c3cccn3Cc3ccncc3)n2)CC1 [Compound B16, N-(4-((E)-2-((1s,4s)-4-aminocyclohexyl)vinyl)thiazol-2-yl)-1-(pyridin-4-ylmethyl)-1H-pyrrole-2-carboxamide]	8.11	19.5	2.4	7.07	8.77	1	19.3	21.3	79	47	2	1
CC(=O)N[C@H]1CC[C@H](/C=C/c2csc(NC(=O)c3cccn3Cc3ccncc3)n2)CC1 [Compound B17]	5.1	8.24	1.6	> 25	23.8	5	5.11	8.61	4	17	<1	<1
N[C@H]1CC[C@H](/C=C/c2csc(NC(=O)c3cccn3Cc3ccncc3)n2)CC1 [Compound B18, N-(4-((E)-2-((1r,4r)-4-aminocyclohexyl)vinyl)thiazol-2-yl)-1-(pyridin-4-ylmethyl)-1H-pyrrole-2-carboxamide]	11.3	> 25	>2.2	> 25	9.91	1	> 25	> 25	45	6	<1	<1
N#Cc1ocnc1/C=C/c1csc(NC(=O)c2cccn2Cc2ccnc(F)c2)n1 [Compound B19, (E)-N-(4-(2-(5-cyanooxazol-4-yl)vinyl)thiazol-2-yl)-1-((2-fluoropyridin-4-yl)methyl)-1H-pyrrole-2-carboxamide]	0.318	> 25	>79	> 25	> 25	>79	> 25	> 25	22	1	6	7
CC(C)n1cnc(/C=C/c2csc(NC(=O)c3cccn3Cc3ccnc(F)c3)n2)c1C#N [Compound B20, (E)-N-(4-(2-(5-cyano-1-isopropyl-1H-imidazol-4-yl)vinyl)thiazol-2-yl)-1-((2-fluoropyridin-4-yl)methyl)-1H-pyrrole-2-carboxamide]	0.009	1.53	170.0	1.52	1.32	146	8.36	15.7	5	33	<1	<1
[2H]c1nc(/C=C/c2csc(NC(=O)c3cccn3Cc3ccnc(F)c3)n2)cn1C(C)C [Compound B21]	0.065	> 25	>380	> 25	> 25	>385	17.5	24.2	11	20	<1	<1
O=C(Nc1nc(/C=C/C2CCOC2)cs1)c1cccn1Cc1ccnc(F)c1 (stereo not shown) [Compound B22, (E)-1-((2-fluoropyridin-4-yl)methyl)-N-(4-(2-(tetrahydrofuran-3-yl)vinyl)thiazol-2-yl)-1H-pyrrole-2-carboxamide]	> 25	> 25	–	> 25	> 25	–	> 25	> 25	41	1	<1	9
O=C(Nc1nc(/C=C/c2ccc3occc3c2)cs1)c1cccn1Cc1ccnc(F)c1 [Compound B27, (E)-N-(4-(2-(benzofuran-5-yl)vinyl)thiazol-2-yl)-1-((2-fluoropyridin-4-yl)methyl)-1H-pyrrole-2-carboxamide]	0.144	1.04	5.2	1.03	0.892	6	> 25	> 25	40	3	8	27
